{"source": "patent US4933348A", "about": "“Heterocyclic compounds” (priority 1985, dated 1990)", "key": {"[1]": {"system": "SRS-A-induced contraction of guinea-pig ileum", "assay": "Inhibition of SRS-A-induced contraction of isolated guinea-pig ileum", "design": "species or system guinea-pig (male Hartley)", "conditions": "submaximal concentration of SRS-A (derived from guinea pig lung), incubation 20 minutes, 37° C., read-out: IC 50 (M), Ileum, Anti-SRS-A", "protocol": "(§1) (1) Inhibition of SRS-A- and LTD4 -induced contraction of guinea-pig ileum and trachea\n(§2) Methods: Male Hartley guinea-pigs, weighing 500 to 700 g were sacrificed by a blow on the head The ileum and tracheal strips prepared according to the method of Constantine (Constantine, J. W., J. Pharm Pharmacol., 17, 384 (1965)) were suspended with 1.0 g tension in an organ bath containing 10 ml of Tyrode solution equilibrated with a mixture of 95% O2 and 5% CO2 at 37° C. The tissues were equilibrated for 60 minutes; during this period the Tyrode solution was replaced every 15 minutes and the loading tension was adjusted to 1.0 g. The developed tension of the tissues was measured isometrically with a strain gauge transducer, and recorded on a Recticorder. Both the contractile response of the ileum to submaximal concentration of SRS-A (derived from guinea pig lung) and tracheal response to 10^-8 M LTD4 were recorded in the absence and then in the presence of various concentrations of test compounds. The incubation time of the compounds was 20 minutes."}, "[2]": {"system": "LTD4-induced contraction of guinea-pig trachea", "assay": "Inhibition of LTD4-induced contraction of isolated guinea-pig trachea", "design": "species or system guinea-pig (male Hartley)", "conditions": "10^-8 M LTD4; for inhibition of the contractions induced by LTD4 (in words): isolated guinea pig trachea; for IC50: isolated guinea-pig trachea, incubation 20 minutes, 37° C., read-out: IC 50 (M), Trachea, Anti-LTD4", "protocol": "as §1, §2"}, "[3]": {"system": "LTD4-enhanced vascular permeability", "assay": "Inhibition of LTD4-enhanced vascular permeability in guinea-pig", "assay_type": "in vivo, guinea-pig (male Hartley)", "conditions": "for ED50: Cavia porcellus, po, 30 minutes before LTD4 injection (5 ng intradermal); for anti-leukotriene effect by oral route (in words) / inhibition of LTD4-enhanced vascular permeability (in words): p.o.; for inhibition of LTD4-enhanced vascular permeability (in words): 30 minutes before LTD4 injection", "protocol": "(2) Inhibition of LTD4 -enhanced vascular permeability in guinea-pig\nMethod: Male Hartley quinea-pigs weighing 270 to 305 g, starved for 16 hours, were intradermally injected 5 ng LTD4 in a volume of 0.1 ml into two sites on the shaved back. In addition, 0.1 ml of vehicle was injected intradermally in each animal to see non-specific irritation. One ml of saline containing 1% Evans blue was intravenously injected 2 minutes before LTD4 injection. Animals were sacrificed 30 minutes after LTD4 injection. The leaked dye at the site of LTD4 or vehicle injection was extracted according to the method of Harada et al. (Harada, M. et al., J. Pharm. Pharmacol., 23, 218 (1971)) and measured photometrically at 620 nm. The LTD4 -induced skin reaction was expressed as a difference in the amount of dye between LTD4 and vehicle. Test compounds were orally administered 30 minutes before LTD4 injection."}}}
{"molecule": "CCCc1c(CSc2nnc(NC(=O)C(=O)O)s2)ccc(C(C)=O)c1O", "note": "[Example 22, [5-[(4-acetyl-3-hydroxy-2-propylbenzyl)thio]-1,3,4-thiadiazol-2-yl]oxamidic acid]", "values": [{"measurement": "IC50", "setting": "[1]", "result": "2.2e-08", "unit": "M"}]}
{"molecule": "CCCc1c(CSc2nnc(SCc3ccc(OCC(=O)O)cc3)s2)ccc(C(C)=O)c1O", "note": "[Example 33, [p-[[[5-[(4-acetyl-3-hydroxy-2-propylbenzyl)thio]-1,3,4-thiadiazol-2-yl]thio]methyl]phenoxy]acetic acid]", "values": [{"measurement": "IC50", "setting": "[1]", "result": "2.9e-10", "unit": "M"}, {"measurement": "inhibition of the contractions induced by LTD4 (in words)", "setting": "[2]", "result": "potently inhibited"}, {"measurement": "IC50", "setting": "[2]", "result": "5.4e-08", "unit": "M"}]}
{"molecule": "CCCc1c(CSc2nnc(SCc3ccc(C(=O)O)cc3)s2)ccc(C(C)=O)c1O", "note": "[Example 37, p-[[5-[(4-acetyl-3-hydroxy-2-propylbenzyl)thio]-1,3,4-thiadiazol-2-yl]thiomethyl]benzoic acid]", "values": [{"measurement": "IC50", "setting": "[1]", "result": "3.6e-09", "unit": "M"}, {"measurement": "inhibition of the contractions induced by LTD4 (in words)", "setting": "[2]", "result": "potently inhibited"}, {"measurement": "IC50", "setting": "[2]", "result": "1.1e-08", "unit": "M"}, {"measurement": "ED50", "setting": "[3]", "result": 7, "unit": "mg/kg"}, {"measurement": "anti-leukotriene effect by oral route (in words)", "setting": "[3]", "result": "potent anti-leukotriene effect"}, {"measurement": "inhibition of LTD4-enhanced vascular permeability (in words)", "setting": "[3]", "result": "dose-dependently inhibited"}]}
{"molecule": "CCCc1c(CSc2nnc(SCc3ccc(CCC(=O)O)cc3)s2)ccc(C(C)=O)c1O", "note": "[Example 46, 3-[p-[[[5-[(4-acetyl-3-hydroxy-2-propylbenzyl)thio]-1,3,4-thiadiazol-2-yl]thio]methyl]phenyl]propionic acid]", "values": [{"measurement": "IC50", "setting": "[1]", "result": "3.1e-08", "unit": "M"}]}
{"molecule": "CCCc1c(CSc2nnc(SCC(=O)O)s2)ccc(C(C)=O)c1O", "note": "[Example 2, [[5-[(4-acetyl-3-hydroxy-2-propylbenzyl)thio]-1,3,4-thiadiazol-2-yl]thio]-acetic acid]", "values": [{"measurement": "IC50", "setting": "[1]", "result": "4.2e-08", "unit": "M"}, {"measurement": "inhibition of the contractions induced by LTD4 (in words)", "setting": "[2]", "result": "potently inhibited"}, {"measurement": "IC50", "setting": "[2]", "result": "4e-08", "unit": "M"}, {"measurement": "ED50", "setting": "[3]", "result": 11.3, "unit": "mg/kg"}, {"measurement": "anti-leukotriene effect by oral route (in words)", "setting": "[3]", "result": "potent anti-leukotriene effect"}, {"measurement": "inhibition of LTD4-enhanced vascular permeability (in words)", "setting": "[3]", "result": "dose-dependently inhibited"}]}
{"molecule": "CCCc1c(CSc2nnc(SCCCCCCC(=O)O)s2)ccc(C(C)=O)c1O", "note": "[Example 13, 7-[[5-[(4-acetyl-3-hydroxy-2-propylbenzyl)thio]-1,3,4-thiadiazol-2-yl]thio]heptanoic acid]", "values": [{"measurement": "IC50", "setting": "[1]", "result": "2.1e-08", "unit": "M"}]}
{"molecule": "CCCc1c(CSc2nnc(SCCCC(=O)O)s2)ccc(C(C)=O)c1O", "note": "[Example 4, 4-[[5-[(4-acetyl-3-hydroxy-2-propylbenzyl)thio]-1,3,4-thiadiazol-2-yl]thio]butyric acid]", "values": [{"measurement": "IC50", "setting": "[1]", "result": "4.1e-09", "unit": "M"}]}
{"molecule": "CCCc1c(CSc2nnc(NC(=O)CCC(=O)O)s2)ccc(C(C)=O)c1O", "note": "[Example 24, 4-[[5-[(4-acetyl-3-hydroxy-2-propylbenzyl)thio]-1,3,4-thiadiazol-2-yl]amino]-4-oxobutyric acid]", "values": [{"measurement": "IC50", "setting": "[1]", "result": "3.3e-09", "unit": "M"}]}
{"molecule": "CCCc1c(CSc2nnc(SCCCS(=O)(=O)CC(=O)O)s2)ccc(C(C)=O)c1O", "note": "[Example 36, [3-[[5-[(4-acetyl-3-hydroxy-2-propylbenzyl)thio]-1,3,4-thiadiazol-2-yl]thio]propylsulfonyl]acetic acid]", "values": [{"measurement": "IC50", "setting": "[1]", "result": "1.1e-09", "unit": "M"}, {"measurement": "inhibition of the contractions induced by LTD4 (in words)", "setting": "[2]", "result": "potently inhibited"}, {"measurement": "IC50", "setting": "[2]", "result": "2.9e-09", "unit": "M"}]}
{"molecule": "CCCc1c(CSc2nnc(SCCC[S+]([O-])CC(=O)O)s2)ccc(C(C)=O)c1O", "note": "(stereo not shown) [Example 35, [3-[[5-[(4-acetyl-3-hydroxy-2-propylbenzyl)thio]-1,3,4-thiadiazol-2-yl]thio]propylsulfinyl]acetic acid]", "values": [{"measurement": "IC50", "setting": "[1]", "result": "1.1e-08", "unit": "M"}, {"measurement": "inhibition of the contractions induced by LTD4 (in words)", "setting": "[2]", "result": "potently inhibited"}, {"measurement": "IC50", "setting": "[2]", "result": "7.8e-09", "unit": "M"}]}
{"molecule": "CCCc1c(CSc2nnc(SCc3ccc(OC(C)C(=O)O)cc3)s2)ccc(C(C)=O)c1O", "note": "(stereo not shown) [Example 34, 2-[p-[[[5-[(4-acetyl-3-hydroxy-2-propylbenzyl)thio]-1,3,4-thiadiazol-2-yl]thio]methyl]phenoxy]propionic acid]", "values": [{"measurement": "ED50", "setting": "[3]", "result": 4.2, "unit": "mg/kg"}]}
{"molecule": "CCCc1c(CSc2nnc(SCCCSCC(=O)O)s2)ccc(C(C)=O)c1O", "note": "[Example 32, [[3-[[5-[(4-acetyl-3-hydroxy-2-propylbenzyl)thio]-1,3,4-thiadiazol-2-yl]thio]propyl]thio]acetic acid]", "values": [{"measurement": "IC50", "setting": "[1]", "result": "1.5e-10", "unit": "M"}, {"measurement": "inhibition of the contractions induced by LTD4 (in words)", "setting": "[2]", "result": "potently inhibited"}, {"measurement": "IC50", "setting": "[2]", "result": "3e-09", "unit": "M"}]}
{"molecule": "CCCc1c(CSc2nnc(SCCCCCC(=O)OCC)s2)ccc(C(C)=O)c1O", "note": "[Example 10, ethyl 6-[[5-[(4-acetyl-3-hydroxy-2-propylbenzyl)thio]-1,3,4-thiadiazol-2-yl]thio]hexanate]", "values": [{"measurement": "IC50", "setting": "[1]", "result": "5.1e-08", "unit": "M"}]}
{"molecule": "CCCc1c(CSc2snc(O)c2C(=O)O)ccc(C(C)=O)c1O", "note": "[Example 44, 5-[(4-acetyl-3-hydroxy-2-propylbenzyl)thio]-3-hydroxy-4-isothiazolecarboxylic acid]", "values": [{"measurement": "IC50", "setting": "[1]", "result": "4.5e-08", "unit": "M"}, {"measurement": "inhibition of the contractions induced by LTD4 (in words)", "setting": "[2]", "result": "potently inhibited"}, {"measurement": "IC50", "setting": "[2]", "result": "1.9e-07", "unit": "M"}]}
{"molecule": "CCCc1c(CSc2nnc(SCCCCCC(=O)O)s2)ccc(C(C)=O)c1O", "note": "[Example 12, 6-[[5-[(4-acetyl-3-hydroxy-2-propylbenzyl)thio]-1,3,4-thiadiazol-2-yl]thio]hexanoic acid]", "values": [{"measurement": "IC50", "setting": "[1]", "result": "4e-09", "unit": "M"}]}
{"molecule": "CCCc1c(CSc2nnc(SCc3ccc(CSCC(=O)O)cc3)s2)ccc(C(C)=O)c1O", "note": "[Example 43, [[p-[[[5-[(4-acetyl-3-hydroxy-2-propylbenzyl)thio]-1,3,4-thiadiazol-2-yl]thio]methyl]benzyl]thio]acetic acid]", "values": [{"measurement": "IC50", "setting": "[1]", "result": "4.7e-09", "unit": "M"}, {"measurement": "inhibition of the contractions induced by LTD4 (in words)", "setting": "[2]", "result": "potently inhibited"}, {"measurement": "IC50", "setting": "[2]", "result": "3.8e-09", "unit": "M"}]}
{"molecule": "CCCc1c(CSc2nnc(SCCCCC(=O)O)s2)ccc(C(C)=O)c1O", "note": "[Example 11, 5-[[5-[(4-acetyl-3-hydroxy-2-propylbenzyl)thio]-1,3,4-thiadiazol-2-yl]thio]valeric acid]", "values": [{"measurement": "IC50", "setting": "[1]", "result": "9.1e-09", "unit": "M"}]}
{"molecule": "CCCc1c(CSc2nccc(O)n2)ccc(C(C)=O)c1O", "note": "[Example 14, 2-[(4-acetyl-3-hydroxy-2-propylbenzyl)thio]-4-hydroxypyrimidine]", "values": [{"measurement": "IC50", "setting": "[1]", "result": "5e-08", "unit": "M"}]}
